From paper PMC11674305, “Inhibition of Neural Crest Cell Migration by Strobilurin Fungicides and Other Mitochondrial Toxicants” (Cells, 2024)

Key:
[1] = test system: neural crest cells (NCC); experiment: cMINC (UKN2) assay: circular migration of neural crest cells, with viability; type: cell-based, human; conditions: for Ratio: migration/cytotoxicity ratio, hit requires ≥ 1.3, HTC used where no viability effect
Description: The research group initially developed the first version of the test in 2012 [40]. The test has been further improved and characterized. To perform the cMINC assay, NCCs were thawed in N2-S Medium and seeded on the day of migration-1 (DoM-1) on a 96-well polystyrene plate (Corning, Glendale, AZ, USA) around stoppers, to create a cell-free area of 2 mm diameter (Platypus Technologies, Madison, WI, USA). The cells were resuspended in N2-S Medium supplemented with […] of the cytokines EGF and FGF, and then counted and seeded around the stoppers at a density of 95,000 cells/cm^2. After 24 h, the stoppers were removed, and the medium was exchanged. The removal of the stoppers initiates migration of the NCCs into the cell-free area. For the treatment, the 5x-concentrated toxicant solution was added to the medium 24 h after stopper removal.
On day 2, cells were stained with 533 nM calcein-AM and 1 μg/mL H-33342 (both from Sigma, Steinheim, Germany) and observed using two different channels on the Cellomics ArrayScan VTI imaging microscope (Thermo Fisher, Pittsburgh, PA, USA) to assess viability and migration. For the migration, four pictures were taken in the region of interest (ROI) (5× magnification objective). Migration data were obtained using the software “Ringassay” (http://invitrotox.uni-konstanz.de/ (accessed on 3 November 2024)), which can estimate the previously cell-free area and count the number of H-33342 and calcein-AM double-positive cells. Cell viability was assessed by taking four pictures outside of the ROI with 10× magnification objective. Viable cells were defined as H-33342 and calcein-AM double-positive cells and calculated by an automatic algorithm of the ArrayScan VTI 700 Series software as described earlier. […] Each plate included wells for testing of negative (0.1% DMSO solvent) and positive controls (200 nM cytochalasin D) in addition to the wells for blinded samples. The data from control wells were used as acceptance criteria of the assay. […] Renormalization of the concentration–response curves was performed after a visual inspection that the two lowest test-concentration data points are in the no-effect range. The average response (relative to solvent control) of the lowest two test concentrations was calculated, and all other data points of the same curve were divided by this average value. The calculations of the benchmark concentrations 10 for viability (BMC10 (V)) and 25 for migration (BMC25 (M)) were performed with the online available BMC software (http://invitrotox.uni-konstanz.de/ (accessed on 4 November 2024)).

[2] = test system: neural crest cells (NCC); experiment: Seahorse oxygen consumption rate (mitochondrial stress test); type: cell-based, human
Description: The Seahorse bioanalyzer simultaneously measures cellular oxygen consumption rates (OCR) and extracellular acidification rates (ECAR). Therefore, NCCs were seeded at least two days prior to the assays at a density of 80,000 cells/well on Seahorse XF96 V3 PS Cell Culture Microplates (Agilent, Santa Clara, CA, USA) in either glucose medium or galactose medium. After 24 h, the medium was exchanged. For the real-time ATP production rate and mitochondrial stress assay, the cartridge was hydrated at 0% CO2 and 37 °C, and the seahorse was turned on to stabilize the temperature one day prior. The medium was changed to Seahorse XF DMEM Medium (Agilent, Santa Clara, CA, USA) supplemented with 2 mM L-glutamine, 1 mM pyruvate and 18 mM glucose or galactose 1 h before the start of the assays. Directly before the start of the assay, the medium was exchanged again. The sensor cartridge was loaded with the test compounds anchored to the BMC10 (V) of the cMINC screen and the recommended concentrations of calibration compounds for a mitochondrial stress test. These were 5 μM oligomycin, 15 μM carbonyl cyanide p-trifluoro methoxyphenylhydrazone (FCCP) and 5 μM rotenone plus 5 μM antimycin A. Additionally, 1 μg/mL H-33342 was added to the rotenone and antimycin A injection to perform afterwards a cell count (Cellomics, Waltham, MA, USA), to which the data were normalized. Six technical replicates were used for control conditions, and three technical replicates were used for other samples. The software Seahorse Analytics (Agilent, Santa Clara, CA, USA) was used for the evaluation (https://seahorseanalytics.agilent.com (accessed on 30 October 2024)).

[3] = target: T1, complex III (cIII) (Homo sapiens, UniProt P00156); experiment: Electron transport chain complex activity in permeabilized NCC (Seahorse); type: cell-based; conditions: 60 μM (BMC10(V) of cMINC)
T1 construct: endogenous in cells; host or cells: neural crest cells (NCC), digitonin-permeabilized
From the text: Magel et al. (2024): Inhibition of neural crest cells migration by strobilurin fungicides
Figure S9. Inhibition of electron transport chain complexes by picoxystrobin in neural crest […]
NCC were exposed to the BMC10(V) of the cMINC assay (60 μ M). The grey area indicates th e non-significant range of the assay (≤ 25% change). The effect on complex IV (cIV) was non-significant (green bar). The purple bar indicates complex III (cIII) inhibition. Yellow bars […]
that for these assays, the electrons have to pass cIII to reach cIV (oxygen consumption), i.e. electrons from cI (or cII) cannot be used for the reduction of oxygen, as they need to flow through cIII (which is blocked). The pattern of inhibition is indicative of cIII as illustrated earlier (Delp et al., 2019; van der Stel et al., 2020).
To investigate the inhibition pattern of picoxystrobin, NCC were permeabilized and complex-specific substrates and inhibitors were sequentially injected as described earlier (Delp et al., 2019). In detail, cells were permeabilized with MAS buffer (220 mM mannitol, 1 mM ADP, 70 mM sucrose, 10 mM KH2PO4, 5 mM MgCl2, 2 mM HEPES, 1 mM EGTA, 4 mg/ml fatty acid-free BSA, pH = 7.2) supplemented with 25 μ g/mL digitonin. Seahorse measurements were started directly afterwards, and basal OCRs were assessed for internal normalization. Then picoxystrobin was injected and cI activity was assessed. […]

With `CO/C=C(/C(=O)OC)c1ccccc1COc1cccc(C(F)(F)F)n1` [Picoxystrobin, picoxystrobin] the Migration ([1]; Pre-Screen 1, single concentration 1:1000 of stock, in most cases 100 μM) was 65 % of control, the “effect of 1% HSA on inhibition of NCC migration” value ([1]; medium supplemented with 1% human serum albumin) was “did not alter the effect” and the “BMC25 (M)” value ([1]; migration, primary screen, 24 h exposure) was 1e-05 M. For the same molecule, the Ratio [1] was 6.0, the Ratio ([1]; listed as BC2) was 6.1 and the “lowering of OCR POD by 24 h pre-treatment” value ([2]; 24 h pre-treatment vs acute exposure) was 10 fold. For the same molecule, the “BMC25 (OCR), POD” value ([2]; 24 h pre-treatment, galactose medium) was 0.4 µM and the “effect on complex III (cIII)” value [3] was “inhibition of complex III”.
